Measured values published in US20220062262A1, “GSNO REDUCTASE INHIBITOR AS AN ADJUNCT THERAPY WITH REMOTE ISCHEMIC CONDITIONING AND THROMBOLYTIC REPERFUSION THERAPIES IN STROKE” (KING ABDULAZIZ UNIVERSITY, priority 2020, published 2022).

Tested on: iNOS, iCAM-1, IL-1β, IL-6 expression
Test: Brain inflammatory gene expression (RT-PCR) after tMCAo in STZ-induced diabetic mice
Assay type: in vivo
Procedure: Mice were immediately sacrificed after PbtO2 measurement and brain tissue samples were analyzed for inflammatory gene expression (N=6/gp). RT-PCR primers shown in Table 1 were used to measure changes in expression of iNOS (FIG. 11A), iCAM-1 (FIG. 11B), IL-1(3 (FIG. 11C) and IL-6 (FIG. 11D). The result for each inflammatory gene was normalized to expression of β-actin and expressed as a fold change.

Cc1cc(C(N)=O)ccc1-n1c(CCC(=O)O)ccc1-c1ccc(-n2ccnc2)cc1 [GRI therapy, N6022]
inflammatory gene expression in brain (fold change, normalized to β-actin) (GRI alone vs vehicle-treated stroke group, after PbtO2 measurement at 6 h post-reperfusion): showed a trend only to downregulate most inflammatory genes and were not significantly different from the vehicle-treated stroke group | inflammatory gene expression in brain (fold change, normalized to β-actin) (GRI prior to RIC therapy vs RIC therapy alone): significantly downregulated and prevented RIC-induced inflammatory responses
